From PubChem BioAssay AID1259407 (Chemical Carcinogenesis Research Information System (CCRIS), 2018)
Activity calls are given as the source filed them. The rule behind the calls is not given here.

Tested on: CCRIS mutagenicity, Ames/micronucleus/aberration tests
Experiment: CCRIS mutagenicity studies
Settings: Test System: AMES SALMONELLA TYPHIMURIUM, Method: STANDARD PLATE
[1] = Strain/Indicator: TA100, Metabolic Activation: RAT, LIVER, S-9, AROCLOR 1254

Measured: mutagenic call

C=CC(=O)OCCCCC
inactive: Strain/Indicator: TA98, Metabolic Activation: NONE inactive; negative | Strain/Indicator: TA98, Metabolic Activation: RAT, LIVER, S-9, AROCLOR 1254 inactive; negative | Strain/Indicator: TA98, Metabolic Activation: RAT, LIVER, S-9, SODIUM PHENOBARBITAL inactive; negative | Strain/Indicator: TA100, Metabolic Activation: NONE inactive; negative | [1] inactive; negative | Strain/Indicator: TA100, Metabolic Activation: RAT, LIVER, S-9, SODIUM PHENOBARBITAL inactive; negative | Strain/Indicator: TA1535, Metabolic Activation: NONE inactive; negative | Strain/Indicator: TA1535, Metabolic Activation: RAT, LIVER, S-9, AROCLOR 1254 inactive; negative | Strain/Indicator: TA1535, Metabolic Activation: RAT, LIVER, S-9, SODIUM PHENOBARBITAL inactive; negative | Strain/Indicator: TA1537, Metabolic Activation: NONE inactive; negative | Strain/Indicator: TA1537, Metabolic Activation: RAT, LIVER, S-9, AROCLOR 1254 inactive; negative | Strain/Indicator: TA1537, Metabolic Activation: RAT, LIVER, S-9, SODIUM PHENOBARBITAL inactive; negative | Strain/Indicator: TA1538, Metabolic Activation: NONE inactive; negative | Strain/Indicator: TA1538, Metabolic Activation: RAT, LIVER, S-9, AROCLOR 1254 inactive; negative | Strain/Indicator: TA1538, Metabolic Activation: RAT, LIVER, S-9, SODIUM PHENOBARBITAL inactive; negative

CC1C=Cc2ccc3ccc4ccccc4c3c21 (stereo unspecified)
inactive: [1] inactive; negative
